Experimental data from ChEMBL document CHEMBL4507261, “Data for DCP probe A-192621” (2021).

Legend:
[1] = molecular target: Neuropeptide Y receptor type 1 (Homo sapiens) (UniProt P25929); assay: Y1 (h) Eurofins-Cerep binding assay; design: ligand concentration 0.025 nM; conditions: filed as agonist, Compound concentration 10.0 uM
[2] = molecular target: Mu-type opioid receptor (Homo sapiens) (UniProt P35372); assay: mu (MOP) (h) Eurofins-Cerep binding assay; conditions: filed as agonist, Compound concentration 10.0 uM
[3] = molecular target: 5-hydroxytryptamine receptor 1A (Homo sapiens) (UniProt P08908); assay: 5-HT1A (h) Eurofins-Cerep binding assay; design: ligand concentration 0.5 nM; conditions: filed as agonist, Compound concentration 10.0 uM
[4] = molecular target: Vasopressin V1a receptor (Homo sapiens) (UniProt P37288); assay: V1 a (h) Eurofins-Cerep binding assay; design: ligand concentration 0.3 nM; conditions: filed as agonist, Compound concentration 10.0 uM
[5] = molecular target: Sodium-dependent dopamine transporter (Homo sapiens) (UniProt Q01959); assay: dopamine transporter (h) Eurofins-Cerep binding assay; design: ligand concentration 4 nM; conditions: filed as antagonist, Compound concentration 10.0 uM
[6] = molecular target: T1, Endothelin-1 receptor (Homo sapiens, UniProt P25101); assay: Eurofins cellular functional assay - Antagonist (EDNRA)
T1 sequence (P25101 whole entry): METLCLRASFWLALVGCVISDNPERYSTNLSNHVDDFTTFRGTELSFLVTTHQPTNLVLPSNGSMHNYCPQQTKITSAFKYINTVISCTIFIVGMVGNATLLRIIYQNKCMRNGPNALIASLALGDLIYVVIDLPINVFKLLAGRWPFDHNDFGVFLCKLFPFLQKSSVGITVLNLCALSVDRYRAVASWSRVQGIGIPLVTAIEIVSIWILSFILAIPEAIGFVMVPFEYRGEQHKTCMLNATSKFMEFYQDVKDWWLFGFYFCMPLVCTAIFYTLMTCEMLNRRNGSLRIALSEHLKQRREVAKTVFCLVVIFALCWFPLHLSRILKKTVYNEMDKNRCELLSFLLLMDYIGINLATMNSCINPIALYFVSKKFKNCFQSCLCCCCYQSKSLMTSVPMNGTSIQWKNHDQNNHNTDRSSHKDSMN

[7] = tested on: Tyrosine-protein kinase ABL1 (Homo sapiens), P00519 [F317L]; conditions: Compound concentration 1000.0 nM
[8] = molecular target: Tyrosine-protein kinase ABL1 (Homo sapiens) (UniProt P00519); conditions: Compound concentration 1000.0 nM
[9] = molecular target: Tyrosine-protein kinase receptor UFO (Homo sapiens) (UniProt P30530); conditions: Compound concentration 1000.0 nM
[10] = molecular target: Tyrosine-protein kinase BTK (Homo sapiens) (UniProt Q06187); conditions: Compound concentration 1000.0 nM
[11] = molecular target: Calcium/calmodulin-dependent protein kinase type 1G (Homo sapiens) (UniProt Q96NX5); conditions: Compound concentration 1000.0 nM
[12] = molecular target: Calcium/calmodulin-dependent protein kinase kinase 2 (Homo sapiens) (UniProt Q96RR4); conditions: Compound concentration 1000.0 nM
[13] = molecular target: Cyclin-dependent kinase 13 (Homo sapiens) (UniProt Q14004); conditions: Compound concentration 1000.0 nM
[14] = molecular target: Citron Rho-interacting kinase (Homo sapiens) (UniProt O14578); conditions: Compound concentration 1000.0 nM
[15] = molecular target: Dual specificity protein kinase CLK3 (Homo sapiens) (UniProt P49761); conditions: Compound concentration 1000.0 nM
[16] = molecular target: Mitogen-activated protein kinase 3 (Homo sapiens) (UniProt P27361); conditions: Compound concentration 1000.0 nM
[17] = molecular target: Mitogen-activated protein kinase 15 (Homo sapiens) (UniProt Q8TD08); conditions: Compound concentration 1000.0 nM
[18] = molecular target: Fibroblast growth factor receptor 3 (Homo sapiens) (UniProt P22607); conditions: Compound concentration 1000.0 nM
[19] = tested on: Receptor-type tyrosine-protein kinase FLT3 (Homo sapiens), P36888 [UNDEFINED MUTATION]; conditions: Compound concentration 1000.0 nM
[20] = molecular target: Tyrosine-protein kinase Fyn (Homo sapiens) (UniProt P06241); conditions: Compound concentration 1000.0 nM
[21] = molecular target: Inhibitor of nuclear factor kappa-B kinase subunit alpha (Homo sapiens) (UniProt O15111); conditions: Compound concentration 1000.0 nM
[22] = molecular target: Mast/stem cell growth factor receptor Kit (Homo sapiens) (UniProt P10721); conditions: Compound concentration 1000.0 nM
[23] = molecular target: Mitogen-activated protein kinase kinase kinase 15 (Homo sapiens) (UniProt Q6ZN16); conditions: Compound concentration 1000.0 nM
[24] = molecular target: Serine/threonine-protein kinase Nek3 (Homo sapiens) (UniProt P51956); conditions: Compound concentration 1000.0 nM
[25] = molecular target: Serine/threonine-protein kinase Nek6 (Homo sapiens) (UniProt Q9HC98); conditions: Compound concentration 1000.0 nM
[26] = molecular target: Serine/threonine-protein kinase NLK (Homo sapiens) (UniProt Q9UBE8); conditions: Compound concentration 1000.0 nM
[27] = molecular target: Mitogen-activated protein kinase 12 (Homo sapiens) (UniProt P53778); conditions: Compound concentration 1000.0 nM
[28] = molecular target: Phosphatidylinositol 4,5-bisphosphate 3-kinase catalytic subunit beta isoform (Homo sapiens) (UniProt P42338); conditions: Compound concentration 1000.0 nM
[29] = molecular target: Serine/threonine-protein kinase pim-3 (Homo sapiens) (UniProt Q86V86); conditions: Compound concentration 1000.0 nM
[30] = molecular target: Phosphatidylinositol 5-phosphate 4-kinase type-2 gamma (Homo sapiens) (UniProt Q8TBX8); conditions: Compound concentration 1000.0 nM
[31] = molecular target: Serine/threonine-protein kinase D3 (Homo sapiens) (UniProt O94806); conditions: Compound concentration 1000.0 nM
[32] = molecular target: cGMP-dependent protein kinase 1 (Homo sapiens) (UniProt Q13976); conditions: Compound concentration 1000.0 nM
[33] = molecular target: RAF proto-oncogene serine/threonine-protein kinase (Homo sapiens) (UniProt P04049); conditions: Compound concentration 1000.0 nM
[34] = molecular target: Serine/threonine-protein kinase SIK1 (Homo sapiens) (UniProt P57059); conditions: Compound concentration 1000.0 nM
[35] = molecular target: NUAK family SNF1-like kinase 2 (Homo sapiens) (UniProt Q9H093); conditions: Compound concentration 1000.0 nM
[36] = molecular target: SRSF protein kinase 1 (Homo sapiens) (UniProt Q96SB4); conditions: Compound concentration 1000.0 nM
[37] = molecular target: Transient receptor potential cation channel subfamily M member 6 (Homo sapiens) (UniProt Q9BX84); conditions: Compound concentration 1000.0 nM
[38] = molecular target: Non-receptor tyrosine-protein kinase TYK2 (Homo sapiens) (UniProt P29597); conditions: Compound concentration 1000.0 nM
[39] = molecular target: Mitogen-activated protein kinase kinase kinase 19 (Homo sapiens) (UniProt Q56UN5); conditions: Compound concentration 1000.0 nM

Sequence of Non-receptor tyrosine-protein kinase TYK2 (Homo sapiens) (P29597 whole entry): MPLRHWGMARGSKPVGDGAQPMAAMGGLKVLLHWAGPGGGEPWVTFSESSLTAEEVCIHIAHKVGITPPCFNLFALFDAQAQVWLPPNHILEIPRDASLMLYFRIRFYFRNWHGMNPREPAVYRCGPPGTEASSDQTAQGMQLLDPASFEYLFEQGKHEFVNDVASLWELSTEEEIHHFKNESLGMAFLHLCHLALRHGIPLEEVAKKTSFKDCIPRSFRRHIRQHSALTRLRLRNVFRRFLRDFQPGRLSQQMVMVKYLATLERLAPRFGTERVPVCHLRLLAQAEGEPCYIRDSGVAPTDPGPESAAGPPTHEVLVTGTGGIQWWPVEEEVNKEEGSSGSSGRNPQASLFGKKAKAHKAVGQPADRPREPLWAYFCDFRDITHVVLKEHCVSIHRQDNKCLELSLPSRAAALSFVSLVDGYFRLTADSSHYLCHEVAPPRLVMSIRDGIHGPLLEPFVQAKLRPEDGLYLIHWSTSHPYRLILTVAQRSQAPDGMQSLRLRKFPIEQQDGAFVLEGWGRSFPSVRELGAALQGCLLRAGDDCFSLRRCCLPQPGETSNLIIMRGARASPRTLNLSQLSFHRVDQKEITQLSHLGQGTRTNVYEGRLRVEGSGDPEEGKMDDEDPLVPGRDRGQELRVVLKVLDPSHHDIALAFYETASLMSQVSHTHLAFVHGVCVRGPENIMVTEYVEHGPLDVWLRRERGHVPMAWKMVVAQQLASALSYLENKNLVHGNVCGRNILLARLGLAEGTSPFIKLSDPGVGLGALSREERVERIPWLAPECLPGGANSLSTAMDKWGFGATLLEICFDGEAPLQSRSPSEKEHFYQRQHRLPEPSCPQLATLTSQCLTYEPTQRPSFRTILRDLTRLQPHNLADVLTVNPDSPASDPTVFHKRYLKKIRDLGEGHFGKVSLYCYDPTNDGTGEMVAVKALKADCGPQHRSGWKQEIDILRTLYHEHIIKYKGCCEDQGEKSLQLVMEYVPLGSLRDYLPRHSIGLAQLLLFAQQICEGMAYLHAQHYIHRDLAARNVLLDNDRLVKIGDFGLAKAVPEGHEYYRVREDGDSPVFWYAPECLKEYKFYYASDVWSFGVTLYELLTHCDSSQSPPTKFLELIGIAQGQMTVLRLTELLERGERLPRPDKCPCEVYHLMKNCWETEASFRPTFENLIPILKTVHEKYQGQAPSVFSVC
Sequence of Calcium/calmodulin-dependent protein kinase type 1G (Homo sapiens) (Q96NX5 whole entry): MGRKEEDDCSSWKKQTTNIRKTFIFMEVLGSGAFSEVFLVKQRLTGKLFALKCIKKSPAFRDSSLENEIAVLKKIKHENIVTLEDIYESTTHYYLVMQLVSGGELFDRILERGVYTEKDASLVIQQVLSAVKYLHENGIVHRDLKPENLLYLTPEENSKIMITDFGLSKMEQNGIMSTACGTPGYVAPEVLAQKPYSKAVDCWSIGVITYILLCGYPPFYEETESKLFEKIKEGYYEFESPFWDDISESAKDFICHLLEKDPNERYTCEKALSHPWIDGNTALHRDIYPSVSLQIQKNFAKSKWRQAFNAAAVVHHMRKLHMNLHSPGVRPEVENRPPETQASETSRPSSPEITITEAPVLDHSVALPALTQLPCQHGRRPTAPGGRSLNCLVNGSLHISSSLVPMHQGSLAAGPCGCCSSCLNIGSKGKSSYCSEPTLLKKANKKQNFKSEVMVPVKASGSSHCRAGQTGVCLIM
Sequence of Transient receptor potential cation channel subfamily M member 6 (Homo sapiens) (Q9BX84 whole entry): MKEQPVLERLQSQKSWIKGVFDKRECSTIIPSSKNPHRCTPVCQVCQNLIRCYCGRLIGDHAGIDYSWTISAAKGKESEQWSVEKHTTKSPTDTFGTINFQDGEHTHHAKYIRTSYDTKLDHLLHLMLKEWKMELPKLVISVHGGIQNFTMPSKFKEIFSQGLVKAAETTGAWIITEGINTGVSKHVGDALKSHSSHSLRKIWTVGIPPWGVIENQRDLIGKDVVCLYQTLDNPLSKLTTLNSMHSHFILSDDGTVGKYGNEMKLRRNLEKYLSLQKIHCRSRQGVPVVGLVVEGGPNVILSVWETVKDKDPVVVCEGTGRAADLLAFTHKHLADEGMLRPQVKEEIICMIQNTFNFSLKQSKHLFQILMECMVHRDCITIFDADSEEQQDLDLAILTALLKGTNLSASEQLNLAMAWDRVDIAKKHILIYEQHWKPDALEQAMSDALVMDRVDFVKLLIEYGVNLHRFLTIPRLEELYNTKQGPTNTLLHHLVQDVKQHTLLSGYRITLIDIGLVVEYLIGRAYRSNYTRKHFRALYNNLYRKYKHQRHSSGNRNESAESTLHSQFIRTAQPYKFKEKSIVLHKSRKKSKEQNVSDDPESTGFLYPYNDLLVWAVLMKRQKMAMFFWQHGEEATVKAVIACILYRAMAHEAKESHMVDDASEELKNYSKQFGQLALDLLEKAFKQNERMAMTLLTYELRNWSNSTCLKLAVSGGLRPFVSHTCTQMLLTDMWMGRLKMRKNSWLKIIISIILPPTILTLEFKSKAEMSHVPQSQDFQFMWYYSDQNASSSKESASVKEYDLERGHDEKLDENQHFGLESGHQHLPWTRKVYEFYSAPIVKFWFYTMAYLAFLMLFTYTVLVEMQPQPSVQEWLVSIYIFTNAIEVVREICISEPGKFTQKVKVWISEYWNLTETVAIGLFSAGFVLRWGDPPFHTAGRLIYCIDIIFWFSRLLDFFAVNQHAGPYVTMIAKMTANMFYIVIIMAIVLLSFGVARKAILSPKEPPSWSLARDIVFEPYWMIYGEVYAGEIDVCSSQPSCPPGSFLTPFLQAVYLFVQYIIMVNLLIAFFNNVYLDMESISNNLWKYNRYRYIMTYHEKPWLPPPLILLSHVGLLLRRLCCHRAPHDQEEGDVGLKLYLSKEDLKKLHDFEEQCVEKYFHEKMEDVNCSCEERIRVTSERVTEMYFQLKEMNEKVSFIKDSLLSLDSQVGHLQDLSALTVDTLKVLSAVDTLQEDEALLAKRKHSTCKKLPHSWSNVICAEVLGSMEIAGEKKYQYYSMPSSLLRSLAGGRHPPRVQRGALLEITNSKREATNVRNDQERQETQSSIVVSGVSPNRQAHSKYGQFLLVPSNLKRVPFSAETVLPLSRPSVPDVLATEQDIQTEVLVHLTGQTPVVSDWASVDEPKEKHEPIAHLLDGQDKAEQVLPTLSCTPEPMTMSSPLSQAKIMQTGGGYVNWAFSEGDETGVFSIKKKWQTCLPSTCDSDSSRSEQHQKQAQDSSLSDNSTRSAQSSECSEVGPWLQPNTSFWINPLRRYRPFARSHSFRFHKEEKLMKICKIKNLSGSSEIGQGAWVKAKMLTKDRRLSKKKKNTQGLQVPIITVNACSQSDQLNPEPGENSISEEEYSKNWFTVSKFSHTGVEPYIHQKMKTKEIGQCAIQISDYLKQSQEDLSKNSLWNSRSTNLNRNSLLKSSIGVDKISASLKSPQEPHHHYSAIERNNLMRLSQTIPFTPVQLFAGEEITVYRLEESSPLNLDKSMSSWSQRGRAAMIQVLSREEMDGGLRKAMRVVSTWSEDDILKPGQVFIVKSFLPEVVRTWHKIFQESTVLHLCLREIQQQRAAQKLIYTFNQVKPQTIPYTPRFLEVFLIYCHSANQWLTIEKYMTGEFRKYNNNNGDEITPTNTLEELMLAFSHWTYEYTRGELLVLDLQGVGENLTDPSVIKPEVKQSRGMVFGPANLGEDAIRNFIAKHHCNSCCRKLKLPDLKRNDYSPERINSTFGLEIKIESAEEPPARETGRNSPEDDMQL
Sequence of Fibroblast growth factor receptor 3 (Homo sapiens) (P22607 23-806 limits assumed): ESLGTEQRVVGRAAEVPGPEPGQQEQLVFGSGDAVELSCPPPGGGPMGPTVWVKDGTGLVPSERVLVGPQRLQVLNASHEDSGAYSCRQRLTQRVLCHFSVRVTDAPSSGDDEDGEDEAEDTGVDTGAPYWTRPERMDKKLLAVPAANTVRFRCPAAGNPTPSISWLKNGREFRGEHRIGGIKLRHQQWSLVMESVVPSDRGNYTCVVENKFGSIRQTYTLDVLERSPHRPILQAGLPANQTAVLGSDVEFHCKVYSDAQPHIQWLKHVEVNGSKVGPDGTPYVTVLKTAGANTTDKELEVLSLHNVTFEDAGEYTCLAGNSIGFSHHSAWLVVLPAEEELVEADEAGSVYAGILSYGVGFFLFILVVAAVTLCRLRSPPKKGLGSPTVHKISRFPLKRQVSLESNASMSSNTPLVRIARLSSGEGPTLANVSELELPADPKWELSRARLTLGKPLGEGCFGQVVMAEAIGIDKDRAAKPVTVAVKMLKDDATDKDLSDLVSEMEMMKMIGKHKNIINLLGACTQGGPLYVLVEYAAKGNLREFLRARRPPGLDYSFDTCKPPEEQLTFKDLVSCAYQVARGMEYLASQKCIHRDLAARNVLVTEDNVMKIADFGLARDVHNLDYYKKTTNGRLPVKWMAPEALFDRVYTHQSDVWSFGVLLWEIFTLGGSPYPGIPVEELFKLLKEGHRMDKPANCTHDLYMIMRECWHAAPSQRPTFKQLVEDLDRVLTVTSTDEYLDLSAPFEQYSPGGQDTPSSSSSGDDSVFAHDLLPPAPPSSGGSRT
Sequence of Calcium/calmodulin-dependent protein kinase kinase 2 (Homo sapiens) (Q96RR4 2-588 limits assumed): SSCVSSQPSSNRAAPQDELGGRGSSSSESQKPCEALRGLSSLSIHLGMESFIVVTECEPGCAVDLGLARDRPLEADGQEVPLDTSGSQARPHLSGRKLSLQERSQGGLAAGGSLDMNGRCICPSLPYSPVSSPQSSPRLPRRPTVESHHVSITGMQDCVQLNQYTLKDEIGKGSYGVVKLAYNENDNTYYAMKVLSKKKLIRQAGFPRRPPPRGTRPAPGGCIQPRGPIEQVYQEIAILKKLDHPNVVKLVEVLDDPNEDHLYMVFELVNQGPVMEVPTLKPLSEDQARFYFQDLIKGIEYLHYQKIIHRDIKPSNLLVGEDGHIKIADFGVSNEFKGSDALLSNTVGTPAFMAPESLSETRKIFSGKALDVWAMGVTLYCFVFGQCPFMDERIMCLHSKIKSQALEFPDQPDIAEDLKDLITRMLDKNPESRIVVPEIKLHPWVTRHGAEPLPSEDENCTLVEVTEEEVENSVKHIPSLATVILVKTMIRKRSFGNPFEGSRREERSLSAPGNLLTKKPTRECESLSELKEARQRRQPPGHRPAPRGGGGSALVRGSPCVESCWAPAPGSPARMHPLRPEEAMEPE

Compound | % Inhibition of Control Specific Binding (Mean n=2) [1] [%] | % Inhibition of Control Specific Binding (Mean n=2) [2] [%] | % Inhibition of Control Specific Binding (Mean n=2) [3] [%] | % Inhibition of Control Specific Binding (Mean n=2) [4] [%] | % Inhibition of Control Specific Binding (Mean n=2) [5] [%] | IC50 [6] | residual activity [7] [%] | residual activity [8] [%] | residual activity [9] [%] | residual activity [10] [%] | residual activity [11] [%] | residual activity [12] [%] | residual activity [13] [%] | residual activity [14] [%] | residual activity [15] [%] | residual activity [16] [%] | residual activity [17] [%] | residual activity [18] [%] | residual activity [19] [%] | residual activity [20] [%] | other results
CCCOc1ccc([C@H]2[C@H](C(=O)O)[C@@H](c3ccc4c(c3)OCO4)CN2CC(=O)Nc2c(CC)cccc2CC)cc1 [A-192621] | -9.3 | 8.3 | -5.9 | 7.4 | 23.6 | 3600 nM (not active) | 68 | 73 | 83 | 55 | 90 | 93 | 45 | 83 | 97 | 93 | 100 | 100 | 59 | 100 | residual activity [21]: 77%; residual activity [22]: 92%; residual activity [23]: 73%; residual activity [24]: 69%; residual activity [25]: 96%; residual activity [26]: 100%; residual activity [27]: 73%; residual activity [28]: 73%; residual activity [29]: 88%; residual activity [30]: 49%; residual activity [31]: 93%; residual activity [32]: 88%; residual activity [33]: 98%; residual activity [34]: 100%; residual activity [35]: 57%; residual activity [36]: 95%; residual activity [37]: 94%; residual activity [38]: 80%; residual activity [39]: 77%
CCCOc1ccc([C@@H]2[C@@H](C(=O)O)[C@H](c3ccc4c(c3)OCO4)CN2CC(=O)Nc2c(CC)cccc2CC)cc1 [A-1806262] | -5.6 | 11.1 | -3.8 | 15 | 18.3 | 1600 nM (not active) | 81 | 80 | 93 | 72 | 89 | 84 | 81 | 98 | 93 | 93 | 100 | 100 | 61 | 87 | residual activity [21]: 86%; residual activity [22]: 82%; residual activity [23]: 99%; residual activity [24]: 100%; residual activity [25]: 92%; residual activity [26]: 100%; residual activity [27]: 100%; residual activity [28]: 92%; residual activity [29]: 95%; residual activity [30]: 94%; residual activity [31]: 86%; residual activity [32]: 97%; residual activity [33]: 100%; residual activity [34]: 100%; residual activity [35]: 73%; residual activity [36]: 94%; residual activity [37]: 77%; residual activity [38]: 81%; residual activity [39]: 93%
